This note sets out measurements from patent US9073916B2, “Prodrug forms of kinase inhibitors and their use in therapy” (AUCKLAND UNISERVICES LIMITED, priority 2009, dated 2015).

The subject of one assay is SKBR3 cells. Briefly: Cellular growth inhibition (sulforhodamine B). The following applies: Table 3. The class given is cell-based, Human.
The test system of another assay is H1975 xenografts. Briefly: In vivo efficacy in H1975 xenografts. More on the design: species or system mice. The protocol: Specific pathogen-free homozygous female NIH-III nude mice (Charles River Laboratories, Wilmington, Mass.) were inoculated subcutaneously with a single cell suspension of H1975 cells (5×10^6 cells/100 μL; right flank). When H1975 tumour xenografts were established (typically 8-12 days) mice were randomized to treatment groups. All compounds were prepared in lactate buffer (pH4). Mice were dosed by intraperitoneal injection (0.01-0.03 ml/g) using the stated schedules and dose levels. For growth delay experiments mice were randomized to treatment and tumor volume [π(length×width^2)/6] and body weight were measured daily following treatment. […] Differences in RTV^4 were tested for statistical difference by Mann Whitney U test using SigmaStat v3.5.

SMILES strings stand for the structures. Where two headings read alike, the source gives them in different places.

Experimental for SKBR3 cells: Human A431, BT474, SKBR3, SKOV3, SW620, H1975 and HT29 carcinoma cells in log phase exponential growth in alpha minimal essential media (αMEM) containing 5% fetal bovine serum (FBS), were harvested by trypsinisation (1× trypsin/EDTA, Gibco Brl), counted, and seeded into 96 well plates (Nunc) at cell densities ranging from 800-1500 cells/well. Half of the cell samples were seeded into plates that were pre-equilibrated and held in an anoxic environment (90% N2, 5% H2, 5% CO2, 37° Q Anaerobic chamber, Coy Laboratory Products). […] At the end of this period the anoxic plates were recovered from the anaerobic camber and held under normoxia in a standard CO2 incubator (37° C.) for 20 hours. All plates were washed free of compound and cells were allowed to proliferate for a further 4 days in αMEM containing 5% FBS+antibiotics. Cells were fixed in trichloroacteic acid (30 min), washed and stained with sulforhodamine B (SRB, 60 min) prior to washing in acidified water. SRB was solubilised and absorption read at 450 nm to calculate cell densities. Inhibition of proliferation was calculated relative to untreated control wells.

As usually defined, the IC50 is the concentration at which inhibition is half-maximal. As to `Cn1cnc([N+](=O)[O-])c1C[N+](C)(C)C/C=C/C(=O)Nc1ccc2ncnc(Nc3cccc(Br)c3)c2c1.[Br-]` [Compound 20, (2E)-4-{[4-(3-bromoanilino)-6-quinazolinyl]amino}-N,N-dimethyl-N-[(1-methyl-4-nitro-1H-imidazol-5-yl)methyl]-4-oxo-2-buten-1-ammonium bromide], in the assay with SKBR3 cells, the “SKBR3 Deact.” value is 49 fold and the “SKBR3 HCR” value amounted to 18.1 fold. For the same compound, the half-inhibitory concentration (IC50) in the assay on SKBR3 cells (24 hour exposure entirely oxic, read-out: Cellular Growth Inhibition IC50 SKBR3 Oxic) was determined as 3.93 µM. The IC50 in the assay on SKBR3 cells (first 4 hours anoxic, read-out: Cellular Growth Inhibition IC50 SKBR3 Anoxic) is 0.217 µM.
Consider `Cn1cnc([N+](=O)[O-])c1C[N+](C)(C)C/C=C/C(=O)Nc1cc2c(Nc3ccc(F)c(Br)c3)ncnc2cn1` [Compound 42, (2E)-4-{[4-(3-bromo-4-fluoroanilino)pyrido[3,4-d]pyrimidin-6-yl]amino}-N,N-dimethyl-N-[(1-methyl-4-nitro-1H-imidazol-5-yl)methyl]-4-oxo-2-buten-1-ammonium bromide], for which the “tumour growth inhibition (TGI)” value in the assay with H1975 xenografts (H1975 xenografts, equitoxic dose 133 (42) and 42.2 (161) μmol/kg/dose, q3dx4, IP) was 188%; with H1975 xenografts (H1975 xenografts, q3dx4 at respective MTD, IP) it was 229%; in the assay on H1975 xenografts (large H1975 xenografts, 75 umol/kg/dose, q3dx8, IP), 154%; with H1975 xenografts (large H1975 xenografts, 100 umol/kg/dose, q3dx8, IP), 213%; with H1975 xenografts (large H1975 xenografts, 133 umol/kg/dose, q3dx8, IP) it was 275%.
